Measured values from ChEMBL document CHEMBL1156814, “Highly suppressing wild-type HIV-1 and Y181C mutant HIV-1 strains by 10-chloromethyl-11-demethyl-12-oxo-calanolide A with druggable profile” (J Med Chem, 2010).

Legend:
[1] = system: Human immunodeficiency virus 1; assay: Antiviral activity against 100 TCID50 HIV1 infected in human TZM-b1 cells assessed as inhibition of viral replication by pseudovirus based assay; assay type: functional, organism-based
[2] = Toxicity in human TZM-b1 cells; assay type: cell-based
[3] = Toxicity in African green monkey Vero cells; assay type: cell-based; settings: chlorocebus sabaeus
[4] = Selectivity index, ratio of IC50 for African green monkey Vero cells to EC50 for HIV1; assay type: toxicity, cell-based; settings: read-out: Selectivity Index
[5] = Human immunodeficiency virus 1, TZM-b1, read-out: EC50

Compound	EC50 [1, 5] [µM]	EC50 ([1]; tzm-b1)	further results
CCCc1cc(=O)oc2c3c(c4c(c12)OC(C)(C)C=C4)OC(CBr)CC3=O (stereo not given)	0.18		
CCCc1cc(=O)oc2c3c(c4c(c12)OC(C)(C)C=C4)OC(CN=[N+]=[N-])CC3=O (stereo not given) [1'-AZIDEMETHYL-11-DEMETHYL-12-OXO-CALANOLIDE A]		Not Active	Activity [2]: Toxic
CCCc1cc(=O)oc2c3c(c4c(c12)OC(C)(C)C=C4)OC(COC)CC3=O (stereo not given)	0.18		CC50 [3]: 9.89 µM; selectivity ratio [4]: 39.7
CCCc1cc(=O)oc2c3c(c4c(c12)OC(C)(C)C=C4)OC(CN1CCCC1)CC3=O (stereo not given)		Not Active	
CCCc1cc(=O)oc2c3c(c4c(c12)OC(C)(C)C=C4)O[C@H]1C[C@H]1C3=O (relative stereo) [CIS-10,11-CYCLOPROPYL-12-OXO-CALANOLIDE A]	0.0141		CC50 [3]: 7.14 µM; selectivity ratio [4]: 709
CCCc1cc(=O)oc2c3c(c4c(c12)OC(C)(C)C=C4)OC(C[S+](C)[O-])CC3=O (stereo not given)	14.4		
CCCc1cc(=O)oc2c3c(c4c(c12)OC(C)(C)C=C4)OC(CS(C)(=O)=O)CC3=O (stereo not given)	33.9		
CCCc1cc(=O)oc2c3c(c4c(c12)OC(C)(C)C=C4)OC(CNC(=O)Nc1ccccc1OC)CC3=O (stereo not given)		Not Active	
CCCc1cc(=O)oc2c3c(c4c(c12)OC(C)(C)C=C4)OC(CNC(=O)Nc1ccc(F)cc1)CC3=O (stereo not given)		Not Active	
CCCc1cc(=O)oc2c3c(c4c(c12)OC(C)(C)C=C4)OC(CNS(=O)(=O)c1ccc(F)cc1)CC3=O (stereo not given)		Not Active	
